Measurements reported in patent publication US20220324835A1 (Nurix Therapeutics, Inc., priority 2018, published 2022).

Legend:
Cbl-b [1] = target: T1, Cbl-b (Homo sapiens, UniProt Q13191); assay: Cbl-b inhibition assay (Cbl-b activity assay, FRET, Biological Example 1; 100 mM NaCl, 60 nM Src kinase); type: biochemical; conditions: upper bound stated in text lists; read-out: IC50 values in the Cbl-b inhibition assay of Biological Example 1
In short: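 Inhibition is read as loss of FRET signal. The signal arises when Src-phosphorylated, N-terminal biotinylated Avi-Cbl-b (captured by streptavidin-terbium) binds UbcH5B carrying covalently linked Bodipy-Fluorescein-tagged ubiquitin.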

Cbl-b [2] = target: T1, Cbl-b; assay: Cbl-b activity assay (Cbl-b inhibition assay), TR-FRET of Cbl-b interaction with UbcH5B-Ub; type: biochemical
In short: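 UbcH5B (C85K) conjugated to N-terminally Bodipy-Fluorescein-labeled ubiquitin served as the fluorescent partner. After compound preincubation, Src kinase (60 nM) with 1 mM ATP and 5 mM MgCl2 (final) was added for 1.5 h, followed by a further 1 h incubation. Some values were obtained with 50 mM NaCl and 30 nM Src.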

Cbl-b (residues 36-427) = Cbl-b (residues 36-427) (Homo sapiens, UniProt Q13191); assay: Cbl-b binding assay (SPR, Biacore T200); conditions: 20° C., 1:1 binding model
Chain of Cbl-b (residues 36-427) (Q13191 36-427): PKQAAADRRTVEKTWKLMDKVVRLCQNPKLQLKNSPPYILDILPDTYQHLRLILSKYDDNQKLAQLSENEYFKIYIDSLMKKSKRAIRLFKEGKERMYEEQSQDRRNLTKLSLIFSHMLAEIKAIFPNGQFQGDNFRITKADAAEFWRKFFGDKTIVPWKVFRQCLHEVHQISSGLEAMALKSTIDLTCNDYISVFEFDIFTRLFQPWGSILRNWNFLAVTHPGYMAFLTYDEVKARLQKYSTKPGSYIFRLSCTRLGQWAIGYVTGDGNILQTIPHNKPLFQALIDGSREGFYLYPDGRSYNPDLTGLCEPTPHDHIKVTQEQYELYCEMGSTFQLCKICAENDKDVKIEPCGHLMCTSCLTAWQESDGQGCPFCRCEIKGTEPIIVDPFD
Description: SPR data was collected on a Biacore T200 (GE Healthcare) using a NeutrAvidin (Invitrogen) capture surface that was generated on a polycarboxylate hydrogel sensor chip of medium charge density (XanTec Bioanalytics GmbH) at 20° C. The surface was prepared using 20 mM HEPES, pH 7.5, 100 mM NaCl, 0.5 mM TCEP, 0.01% Triton X-100 as the immobilization buffer. Neutravidin was coupled to the sensor chip through EDC/NHS amine coupling. All steps were performed using a flow rate of 10 μl/min. First, the chip was preconditioned with a 3-min injection of 1 M NaCl, 0.1 M Borate followed by a 10-min equilibration in immobilization buffer. The surface was activated by a 5-min injection of 100 mM EDC/50 mM NHS. Next, 250 μg/mL NeutrAvidin buffered in 10 mM sodium acetate buffer, pH 5.0 was injected over the surface for 2 min. The surface was deactivated with 1 M Tris, pH 8.5 for 7 min then re-equilibrated in immobilization buffer for 7 min. […] Flow cell 1 served as a reference surface and was prepared without protein. All binding measurements were made in 20 mM HEPES, pH 7.5, 100 mM NaCl, 0.5 mM TCEP, 0.01% Triton X-100, 2% DMSO (referred as assay buffer) at 20° C. Compounds, prepared in assay buffer, were diluted from atop concentration of either 100 μM or 50 μM using either a 2- or 3-fold dilution scheme containing 8 or 10 points. Samples were injected for 50 s at 50 μl/min. Dissociation time varied from 90-180 s, depending on anticipated potency. The surface was regenerated by injection of 0.3 M NaCl, prepared in assay buffer for 20 s at 10 μl/min. Positive and negative control samples were run between each compound to monitor surface integrity.
Column marked with an asterisk (*) were tested as described above with assay buffer containing 50 mM NaCl instead of 100 mM NaCl and 30 nM Src kinase instead of 60 nM Src kinase. The resulting data for the Cbl-b binding assay was solvent corrected and double referenced prior to analysis. All data were globally fit to a steady-state affinity and kinetic binding model where applicable). Fit parameters were derived from a 1:1 binding model using the Biacore T200 Evaluation Software V2.0 (GE Healthcare) (Table 2).

[3] = assay buffer with 100 mM NaCl, 60 nM Src kinase, read-out: Cbl-b activity IC50
[4] = * assay buffer containing 50 mM NaCl instead of 100 mM NaCl and 30 nM Src kinase instead of 60 nM, read-out: Cbl-b activity IC50 (μM)*

T1 sequence (Q13191 36-427): as above

With `C[C@H](Sc1nncn1C)c1cccc(NC(=O)c2cccc(-c3ccnn3C)c2)c1` [Compound 45, 3-(1-Methyl-1H-pyrazol-5-yl)-N-[3-[(1S)-1-[(4-methyl-4H-1,2,4-triazol-3-yl)sulfanyl]ethyl]phenyl]benzamide] the IC50 (Cbl-b [1]) was at most 10 µM, the IC50 (Cbl-b [2]; [3]) was 3 to 10 µM and the Kd (Cbl-b (residues 36-427)) was 3 to 10 µM.

In the case of `C[C@H](Sc1nncn1C)c1ccnc(NC(=O)c2cc(C(F)(F)F)c3ccccc3n2)c1` [Compound 111, (S)-N-(4-(1-((4-methyl-4H-1,2,4-triazol-3-yl)thio)ethyl)pyridin-2-yl)-4-(trifluoromethyl)quinoline-2-carboxamide], the IC50 (Cbl-b [1]) is reported as at most 10 µM, the IC50 (Cbl-b [2]; [3]) is reported as 3 to 10 µM and the Kd (Cbl-b (residues 36-427)) is reported as 3 to 10 µM.

In the case of `C[C@H](Sc1nncn1C)c1cccc(NC(=O)c2cc(C(F)(F)F)c3ccccc3n2)c1` [Compound 83, (S)-N-(3-(1-((4-methyl-4H-1,2,4-triazol-3-yl)thio)ethyl)phenyl)-4-(trifluoromethyl)quinoline-2-carboxamide], the IC50 (Cbl-b [1]) is reported as at most 10 µM, the IC50 (Cbl-b [2]; [3]) is reported as 1 to 3 µM and the Kd (Cbl-b (residues 36-427)) is reported as 3 to 10 µM.

Compound `CC(Sc1nncn1C)c1ccc(F)c(NC(=O)c2cccc(C(F)(F)F)n2)c1` (centres unmarked) [Compound 95, N-(2-fluoro-5-(1-((4-methyl-4H-1,2,4-triazol-3-yl)thio)ethyl)phenyl)-6-(trifluoromethyl)picolinamide] has an IC50 (Cbl-b [1]) of at most 10 µM, an IC50 (Cbl-b [2]; [3]) of 1 to 3 µM and a Kd (Cbl-b (residues 36-427)) of 1 to 3 µM.

`C[C@H](Sc1nncn1C)c1ccnc(NC(=O)c2ccc3cccc(F)c3n2)c1` [Compound 107, (S)-8-fluoro-N-(4-(1-((4-methyl-4H-1,2,4-triazol-3-yl)thio)ethyl)pyridin-2-yl)quinoline-2-carboxamide] gave an IC50 (Cbl-b [1]) of at most 10 µM, an IC50 (Cbl-b [2]; [3]) of 1 to 3 µM and a Kd (Cbl-b (residues 36-427)) of 3 to 10 µM.

Work on `C[C@H](Cc1nncn1C)c1cccc(NC(=O)c2cc(C(=O)N[C@@H]3CCNC3)ccn2)c1` [Compound 247, N2-[3-[(2R)-1-(4-methyl-4H-1,2,4-triazol-3-yl)propan-2-yl]phenyl]-N4-[(3R)-pyrrolidin-3-yl]pyridine-2,4-dicarboxamide] yielded an IC50 (Cbl-b [1]) of at most 10 µM, an IC50 (Cbl-b [2]; [3]) of 3 to 10 µM and a Kd (Cbl-b (residues 36-427)) of 3 to 10 µM.

`CNc1ccnc(C(=O)Nc2cccc([C@H](C)Sc3nncn3C)c2)c1` [Compound 60, (S)-N-(3-(1-((4-methyl-4H-1,2,4-triazol-3-yl)thio)ethyl)phenyl)-4-(methylamino)picolinamide] showed an IC50 (Cbl-b [1]) of at most 10 µM, an IC50 (Cbl-b [2]; [3]) of 1 to 3 µM and a Kd (Cbl-b (residues 36-427)) of 3 to 10 µM.

Compound `CO[C@@H]1CCN(C(=O)c2ccnc(C(=O)Nc3cccc([C@H](C)Sc4nncn4C)c3)c2)C1` [Compound 141, 4-((R)-3-methoxypyrrolidine-1-carbonyl)-N-(3-((S)-1-((4-methyl-4H-1,2,4-triazol-3-yl)thio)ethyl)phenyl)picolinamide] has an IC50 (Cbl-b [1]) of at most 10 µM, an IC50 (Cbl-b [2]; [3]) of 3 to 10 µM and a Kd (Cbl-b (residues 36-427)) of 3 to 10 µM.

In the case of `CC(Sc1nncn1C)c1cccc(NC(=O)c2ccc3c(n2)CCCC3)c1` (centres unmarked) [Compound 23, N-(3-(1-((4-Methyl-4H-1,2,4-triazol-3-yl)thio)ethyl)phenyl)-5,6,7,8-tetrahydroquinoline-2-carboxamide], the IC50 (Cbl-b [1]) is reported as at most 10 µM, the IC50 (Cbl-b [2]; [4]) is reported as 1 to 3 µM and the IC50 (Cbl-b [2]; [3]) is reported as 1 to 3 µM. For the same compound, the Kd (Cbl-b (residues 36-427)) was 3 to 10 µM.

In the case of `C[C@H](Sc1nncn1C)c1cccc(NC(=O)c2nc(C(F)(F)F)ccc2N)c1` [Compound 49, (S)-3-Amino-N-(3-(1-((4-methyl-4H-1,2,4-triazol-3-yl)thio)ethyl)phenyl)-6-(trifluoromethyl)picolinamide], the IC50 (Cbl-b [1]) is reported as at most 10 µM, the IC50 (Cbl-b [2]; [3]) is reported as 1 to 3 µM and the Kd (Cbl-b (residues 36-427)) is reported as 1 to 3 µM.

Work on `CNc1cc(C(C)Sc2nncn2C)cc(N2Cc3c(cccc3C(F)(F)F)C2=O)n1` (centres unmarked) [Compound 180, 2-[6-(methylamino)-4-[1-[(4-methyl-1,2,4-triazol-3-yl)sulfanyl]ethyl]-2-pyridyl]-4-(trifluoromethyl)isoindolin-1-one] yielded an IC50 (Cbl-b [1]) of at most 10 µM, an IC50 (Cbl-b [2]; [3]) of 1 to 3 µM and a Kd (Cbl-b (residues 36-427)) of 1 to 3 µM.

In the case of `C[C@H](Sc1nncn1C)c1cccc(NC(=O)c2cc(C(=O)N3CC[C@@H](N)C3)ccn2)c1` [Compound 146, 4-((R)-3-aminopyrrolidine-1-carbonyl)-N-(3-((S)-1-((4-methyl-4H-1,2,4-triazol-3-yl)thio)ethyl)phenyl)picolinamide], the IC50 (Cbl-b [1]) is reported as at most 10 µM, the IC50 (Cbl-b [2]; [3]) is reported as 3 to 10 µM and the Kd (Cbl-b (residues 36-427)) is reported as 3 to 10 µM.

`C[C@@H](Sc1nncn1C)c1cccc(NC(=O)c2cc(C(=O)N3CC[C@H](O)C3)ccn2)c1` [Compound 161, 4-[[(3S)-3-hydroxypyrrolidin-1-yl]carbonyl]-N-[3-[(1R)-1-[(4-methyl-4H-1,2,4-triazol-3-yl)sulfanyl]ethyl]phenyl]pyridine-2-carboxamide] showed an IC50 (Cbl-b [1]) of at most 10 µM, an IC50 (Cbl-b [2]; [3]) of 3 to 10 µM and a Kd (Cbl-b (residues 36-427)) of over 10 µM.

`C[C@H](Cc1nncn1C)c1cccc(NC(=O)c2cc(C(=O)NCC(C)(C)O)ccn2)c1` [Compound 226, (R)-N^4-(2-hydroxy-2-methylpropyl)-N^2-(3-(1-(4-methyl-4H-1,2,4-triazol-3-yl)propan-2-yl)phenyl)pyridine-2,4-dicarboxamide] gave an IC50 (Cbl-b [1]) of at most 10 µM, an IC50 (Cbl-b [2]; [3]) of 3 to 10 µM and a Kd (Cbl-b (residues 36-427)) of 3 to 10 µM.

For `CCCOc1cc([C@H](C)Cc2nncn2C)cc(N2Cc3c(cccc3C(F)(F)F)C2=O)n1` [Example 688, (R)-2-(4-(1-(4-methyl-4H-1,2,4-triazol-3-yl)propan-2-yl)-6-propoxy-pyridin-2-yl)-4-(trifluoromethyl)isoindolin-1-one], the IC50 (Cbl-b [1]) was at most 1 µM, the IC50 (Cbl-b [2]; [3]) was 0.301 to 1 µM and the Kd (Cbl-b (residues 36-427)) was 1 to 3 µM.

In the case of `CC(Sc1nncn1C)c1cccc(N2Cc3ccc(Cl)cc3C2=O)c1` (centres unmarked) [Compound 163, 6-chloro-2-[3-[1-[(4-methyl-1,2,4-triazol-3-yl)sulfanyl]ethyl]phenyl]isoindolin-1-one], the IC50 (Cbl-b [1]) is reported as at most 10 µM, the IC50 (Cbl-b [2]; [4]) is reported as 3 to 10 µM and the IC50 (Cbl-b [2]; [3]) is reported as 3 to 10 µM. The Kd (Cbl-b (residues 36-427)) was 3 to 10 µM.

Work on `C[C@H](Sc1nncn1C)c1cccc(NC(=O)c2cc(C(=O)N3CCC(O)CC3)ccn2)c1` [Compound 145, (S)-4-(4-hydroxypiperidine-1-carbonyl)-N-(3-(1-((4-methyl-4H-1,2,4-triazol-3-yl)thio)ethyl)phenyl)picolinamide] yielded an IC50 (Cbl-b [1]) of at most 10 µM, an IC50 (Cbl-b [2]; [3]) of 1 to 3 µM and a Kd (Cbl-b (residues 36-427)) of 3 to 10 µM.

With `C[C@H](Sc1nncn1C)c1cccc(NC(=O)c2cc(C(=O)N3CC[C@@H](O)C3)ccn2)c1` [Compound 139, 4-((R)-3-hydroxypyrrolidine-1-carbonyl)-N-(3-((S)-1-((4-methyl-4H-1,2,4-triazol-3-yl)thio)ethyl)phenyl)picolinamide] the IC50 (Cbl-b [1]) was at most 10 µM, the IC50 (Cbl-b [2]; [3]) was 3 to 10 µM and the Kd (Cbl-b (residues 36-427)) was 3 to 10 µM.

In the case of `COc1cc(C(F)(F)F)cc(C(=O)Nc2cccc([C@H](C)Sc3nncn3C)c2)n1` [Compound 73, (S)-6-methoxy-N-(3-(1-((4-methyl-4H-1,2,4-triazol-3-yl)thio)ethyl)phenyl)-4-(trifluoromethyl)picolinamide], the IC50 (Cbl-b [1]) is reported as at most 10 µM, the IC50 (Cbl-b [2]; [3]) is reported as 1 to 3 µM and the Kd (Cbl-b (residues 36-427)) is reported as 3 to 10 µM.

In the case of `CC(O)C1CN(C(=O)c2ccnc(C(=O)Nc3cccc([C@H](C)Cc4nncn4C)c3)c2)C1` (stereo partly drawn) [Compound 241, 4-(3-(1-hydroxyethyl)azetidine-1-carbonyl)-N-(3-((R)-1-(4-methyl-4H-1,2,4-triazol-3-yl)propan-2-yl)phenyl)picolinamide], the IC50 (Cbl-b [1]) is reported as at most 10 µM, the IC50 (Cbl-b [2]; [3]) is reported as 3 to 10 µM and the Kd (Cbl-b (residues 36-427)) is reported as under 0.1 µM.

`CCNc1cc(C(C)Sc2nncn2C)cc(N2Cc3c(cccc3C(F)(F)F)C2=O)n1` (centres unmarked) [Compound 178, 2-[6-(ethylamino)-4-[1-[(4-methyl-1,2,4-triazol-3-yl)sulfanyl]ethyl]-2-pyridyl]-4-(trifluoromethyl)isoindolin-1-one] gave an IC50 (Cbl-b [1]) of at most 1 µM, an IC50 (Cbl-b [2]; [3]) of 0.301 to 1 µM and a Kd (Cbl-b (residues 36-427)) of 0.301 to 1 µM.

For `Cn1cnnc1SC(CCO)c1cccc(NC(=O)c2cccc(C(F)(F)F)n2)c1` (centres unmarked) [Compound 181, N-(3-(3-hydroxy-1-((4-methyl-4H-1,2,4-triazol-3-yl)thio)propyl)phenyl)-6-(trifluoromethyl)picolinamide], the IC50 (Cbl-b [1]) was at most 10 µM, the IC50 (Cbl-b [2]; [3]) was 1 to 3 µM and the Kd (Cbl-b (residues 36-427)) was 3 to 10 µM.
